According to paper PMC10447463, “Data-mining unveils structure–property–activity correlation of viral infectivity enhancing self-assembling peptides” (Nature Communications, 2023):

Experiment: Aggregate analysis by widefield fluorescence microscopy
Assay type: physicochemical
Conditions: for Number of Aggregates / Aggregate Number: ThT-stained aggregates > 10 µm2 in 1330 µm × 1330 µm, 1 mg/mL 1 d, diluted to 0.1 mg/mL with 50 µM ThT, 3D object counter ImageJ, triplicate
Experimental: 4 µL of 1 mg/mL peptide fibrils solution is added to a 20 µL, 50 µM ThT–solution in PBS. The mixture is incubated for 15 min at RT to allow binding of ThT dye with β–sheet rich structures. For reference PBS (4 µL) was added instead of peptide fibril solution. The samples were placed in black UV Star® 384 microliter well–plates (Greiner bio–one). Fluorescence spectra were recorded on an Infinite® M1000 PRO microplate reader (Tecan) at λem = 488 nm upon excitation at λex = 440 nm with 10 nm bandwidths and multiple reads per well (3×3). Measurements were repeated in triplicates and averaged with standard deviation. A peptide fibril was considered as ThT-active if the fluorescence intensity was at least twice as strong compared to the control (PBS containing 10% DMSO). Zeta-Potential. For the determination of the surface charge of aggregated peptides zeta-potential measurements were conducted with a Zetasizer Nano ZS, Malvern Instruments. Unless stated otherwise the peptides were dissolved from DMSO (10 mg/mL) in PBS (pH 7.4) to concentration of 1 mg/mL and incubated for 1d at RT. Just before the measurement the 60 µL of the peptides were further diluted in 600 µL KCl (aq, 1 mM) in a 1 mL disposable folded capillary cells (DTS–1060, Zetasizer Nano series, Malvern). The zeta potential of the peptides was derived from the electrophoretic mobility based on the Smoluchowski formula. All measurements were averaged over two individually performed experiments and conducted in triplicates for each sample. Aggregate analysis. […] Furthermore, fluorescence microscopy was conducted by staining 1 µL preformed fibrils (1 mg/mL) with 9 µL ThT (50 µM). Brightfield microscopy was performed simultaneously to evaluate aggregation also for non ThT-active fibrils. The measurements were performed on a Leica DMi8 microscope with 10x air objective and equipped with a Leica MC170 HD camera with a filter setting λem = 527/30 nm upon excitation at λex = 480/40 nm) and processed with the Leica LASX software. To quantify size and number of microscopic aggregation of particles > 10 µm^2 at least 3 independently measured images were analyzed via the 3D object counter analysis tool of ImageJ, v 1.53f51. Sum–frequency generation. The SFG experiments were carried out with a femtosecond Ti: Sapphire amplified laser system (Spitfire Ace, Spectra–Physics, 800 nm, 40 fs, 1 kHz) with 5 W output power. We used 2 W to pump an optical parametric amplifier (TOPAS, light conversion) with a non–collinear difference frequency generation stage to generate broadband IR pulses. Another 1 W of the laser output passed through an etalon to generate narrowband visible pulses (10 cm^-1). The incident angles of the visible and IR beams were 36° and 41° with respect to the surface normal, respectively. The visible (13 µJ) and IR (5 µJ) pulses were overlapped spatially and temporally at the sample position. Subsequently, the generated SFG pulse was guided into a spectrograph (Acton SP 300i, Princeton Instruments), and detected with an EMCCD (Newton, Andor Technology). To avoid IR absorption of water vapor, we purged N2 for the measurement. All spectra were collected in the ssp (denoting s-, s- and p-polarized SFG, visible and IR, respectively) polarization combination. The spectra were normalized to the non–resonant signal taken from z–cut quartz after subtracting a background spectrum.
Table S8 Summary of aggregate analysis from widefield microscopy measurements (Figure S32). The Number of aggregated peptides, the median size area, average size area
and the cumulative total size area of all particles (> 10 µm2) in an area of 1330 µm × 1330 µm was determined via automated 3D object counting (ImageJ) in triplicate
measurements (Std. Dev.).
Aggregate Std. Dev. Std. Dev. Std. Dev. Std. Dev.
Sequence Abs. Inf. / Std. Dev. / Count Rate / Std. Dev. Number Aggregate Median Area Median Area Average Area Average Area Total Area/ Total Area/ […]

## CKWKWQW
  Number of Aggregates / Aggregate Number: 87

## QCKIKIQINMWQ
  Number of Aggregates / Aggregate Number: 398

## KIKQIINMWQ
  Number of Aggregates / Aggregate Number: 39

## KWKWQW
  Number of Aggregates / Aggregate Number: 28

## QCKIKQIINMWQ [reference compound]
Fig S8 panels A, C
  Avg Area in 3 *(1330 µm *1330 µm): 71.85
  Log 10 Number of aggregates in 3 * (1330 µm *1330 µm): 2.611
  Median Area in 3 * (1330 µm *1330 µm): 27.89
  log Avg Area in 3 * ( (1330 µm *1330 µm)): 1.856
  log Median Area in 3 * ( (1330 µm *1330 µm)): 1.445
  log Total Area of all particles in 3 * (1330 µm *1330 µm): 4.467
Fig S8 panels A, C, 3 fields of 1330 µm x 1330 µm
  Number of aggregates in 3 * (1330 µm *1330 µm): 408
Fig S8 panels B, D, average aggregate area, 3 fields of 1330 µm x 1330 µm
  Avg Area in 3 *(1330 µm *1330 µm): 71.85
Fig S8 panels B, D, median aggregate area, 3 fields of 1330 µm x 1330 µm
  Median Area in 3 * (1330 µm *1330 µm): 27.89
Fig S8 panels B, D, total area of all particles, 3 fields of 1330 µm x 1330 µm
  Total Area of all particles in 3 * (1330 µm *1330 µm): 29314.25467
Fig S8 panels B, D, widefield fluorescence microscopy, 3 fields of 1330 µm x 1330 µm
  Number of aggregates in 3 * (1330 µm *1330 µm): 408
  Number of Aggregates / Aggregate Number: 408

## CKFKFQF
  Number of Aggregates / Aggregate Number: 128
Logarithm of averaged number of aggregates in 1330 µm × 1330 µm
  Log10 Number Aggregates: 2.108

## CHLHLQL
  Number of Aggregates / Aggregate Number: 36

## HIHIQIC
  Number of Aggregates / Aggregate Number: 33

## KIKQIIN
  Number of Aggregates / Aggregate Number: 12

## CKFKFQFNM
  Number of Aggregates / Aggregate Number: 170

## KFKFQFNMWQ
  Number of Aggregates / Aggregate Number: 64
